Reference: patent publication US20160319277A1, “METHODS OF IMPROVED PROTEIN PRODUCTION USING MIRNAs AND SIRNAs” (THE JOHNS HOPKINS UNIVERSITY, priority 2015, published 2016)

Assays:
[1] = system: T-REx-293-NTSR1-GFP cells; assay: High-throughput human miRNA mimic library screen, image-based per cell green fluorescence (NTSR1-GFP expression); conditions: per cell green fluorescence intensity; for MAD-based z-score: 72 h after transfection plus 24 h tetracycline induction
Protocol: T-REx-293-NTSR1-GFP cells were screened with a miRNA mimic library (Qiagen) based on Sanger miRBase™ 13.0 and consisting of 875 miRNAs mimics. For transfection, 0.8 pmol of each mimic was spotted to 384 well plate wells (Corning) and 20 μL of serum-free DMEM containing 0.1 μL of Lipofectamine™ RNAiMax (Life Technologies) was then added to each well. This lipid-miRNA mixture was incubated at ambient temperature for 30 min prior to adding 2000 cells in 20 μL of DMEM containing 20% certified FBS (Gibco). Transfected cells were incubated at 37° C. in 5% CO2 for 72 hours and induced with 1 μg/mL tetracycline for 24 hours for NTSR1-GFP expression. Cells were then fixed with 2% paraformaldehyde (Electron Microscopy Sciences), stained with Hoechst™ 33342 (Life Technologies) for 45 minutes and gently washed with PBS. Plates were imaged with an ImageXpress Micro XL™ (Molecular Devices). Total cell number and per cell green fluorescence intensity were calculated using MetaXpress™ software (Molecular Devices) employing the Multi-Wavelength Cell Scoring™ application module. […] A full column of positive control siRNA targeting GFP (GFP-22 siRNA, Qiagen) was also used as on-plate reference for transfection efficiency. The median absolute deviation (MAD)-based z-score was calculated for each sample.

NTSR1 = assay: [3H]NT binding assay on detergent-solubilized cells for functional expression of NTSR1; assay type: cell-based; conditions: for improvement of functional expression of NTSR1 compared with siN.C.: [3H]NT binding
Protocol: Validation transfections were performed in 12-well plates with miScript™ miRNA mimics (Qiagen, Cat. No. 219600-S0), SilencerSelect™ Negative Control #2 and lethal control siRNA (Qiagen AllStars Cell Death Control™) served as a control for transfection efficiency. Cells were transfected as described for screening except 0.15 million cells were transfected with 40 nM miRNA using 6.25 ul Lipofectamine™ RNAiMax in a total volume of 1 mL of media. 72 hours after transfection, cells were induced with 1 μg/mL tetracycline. 24 hours later, cells from each well were detached with non-enzymatic cell dissociation buffer (Gibco, Cat. No. 13150-016) and washed twice with cold PBS. Cell densities and viability were determined by trypan blue exclusion using a CEDEX™ cell quantification system (Roche, Mannheim, Germany). Based on the counts, cell densities were adjusted to 0.5 million cells/ml with PBS and then subject to flow cytometry analysis. The remaining cells were pelleted and frozen on dry ice for [^3H]NT binding assays.
The detergents n-Dodecyl-β-D-maltoside (LM), 3-[(3-cholamidopyropyl) dimethylammonio]-1-propane sulfonate (CHAPS) and cholesteryl hemisuccinate Tris salt (CHS) were obtained from Anatrace. Cell pellets from 2 mL of suspension culture were suspended in Tris-glycerol-NaCl buffer. Then the detergents LM, CHAPS and CHS were added to give a final buffer composition of 50 mM TrisHCl pH 7.4, 200 mM NaCl, 30% (v/v) glycerol, 1% (w/v) LM, and 0.6% (w/v) CHAPS and 0.12% (w/v) CHS in a total volume of 0.5 mL. The samples were placed on a rotating mixer at 4° C. for 1 hour. Cell debris and non-solubilized material were removed by ultracentrifugation (TL100 rotor, 60 k rpm, 4° C., 30 min in Optima Max™ bench-top ultracentrifuge, Beckman), and the supernatants containing detergent-solubilized NTSR1 were used to determine the total number of expressed receptors by a detergent-based radio-ligand binding assay (see below).
Tritiated neurotensin agonist [^3H]NT ([3,11-tyrosyl-3,5-^3H(N)]-pyro[…] SEQ ID NO:27) was purchased from Perkin Elmer. Ligand-binding assays with detergent-solubilized receptors were carried out in TEBB assay buffer (50 mM Tris pH 7.4, 1 mM EDTA, 40 μg/mL bacitracin, 0.1% BSA) containing 0.1% (w/v) LM, 0.2% (w/v) CHAPS and 0.04% (w/v) CHS. For one-point assays, receptors were incubated with 2 nM [^3H]NT on ice for 1 hour in a volume of 150 μL. The concentration of [^3H]NT used was at least 5-fold above the apparent dissociation constants for detergent-solubilized NTSR1 to allow high receptor occupancy. Separation of the receptor-ligand complex from free ligand (100 μL) was achieved by centrifugation-assisted gel filtration using Bio-Spin™ 30 Tris columns (BioRad), equilibrated with RDB buffer (50 mM Tris-HCl, pH 7.4, 1 mM EDTA, 0.1% (w/v) LM, 0.2% (w/v) CHAPS, 0.04% (w/v) CHS). Non-specific [^3H]NT binding of 220 dpm was subtracted from total binding to calculate the total amount of receptors in T-REx-293-NTSR1-GFP cells. The number of functional NTSR1 was estimated by specific [^3H]NT binding assuming one ligand-binding site per receptor molecule. The number of cells in the assay was derived by cell counting at cell harvest. This approach led to the calculation of the parameter “receptors/cell”.

[2] = system: CMV-Luc2-HygroHEK293 cell line; assay: Validation of miRNAs with luciferase-expressing cells (ONE-Glo / CellTiter-Glo, 12-well); assay type: cell-based, human; conditions: 40 nM miRNA, 72 h; for improvement of luciferase expression (per cell luciferase activity): 12-well, versus siN.C.
Protocol: CMV-Luc2-HygroHEK293 cell line constitutively expressing luciferase is purchased from Promega. Validation transfections were performed in 12-well plates with miScript miRNA mimics (Qiagen, Cat. No. 219600-S0), SilencerSelect™ Negative Control #2 and lethal control siRNA (Qiagen AllStars Cell Death Control™) served as a control for transfection efficiency. Cells were transfected in duplicates as described above in the screening method with the following modification: 0.1 million cells were transfected with 40 nM miRNA using 6.25 ul Lipofectamine™ RNAiMax in a total volume of 1 mL of media. 72 hours after transfection, 500 μL of ONE-Glo™ Reagent (Promega) was added to one set of replicates for luciferase activity quantification and 500 μL of CellTiter-Glo™ Reagent (Promega) was added to the second set of replicates for viable cell density measurement. All plates were incubated at room temperature for 20 minutes to stabilize luminescent signal and then measured with SpectraMax i3™ plate reader (Molecular Devices). Per cell luciferase production was calculated from overall luciferase activity and viable cell number.

HEK-GPC3-hFc cell line = assay: Validation of miRNAs with GPC3-hFc-expressing cells (ELISA and cell count); assay type: cell-based, human; conditions: 40 nM miRNA, 6 days after transfection, versus siN.C.
Protocol: HEK-GPC3-hFc cell line constitutively secreting glypican-3 hFc-fusion protein (GPC3-hFc) was a gift from the National Cancer Institute of the NIH. Cells were grown in DMEM supplemented with 10% FBS in a humidified incubator set at 37° C. and 5% CO2.
Cells were transfected in 12-well plates as described above in the screening method with the following modification: 0.15 million cells were transfected with 40 nM miRNA using 6.25 ul Lipofectamine™ RNAiMax in a total volume of 1 mL of media. 6 days after transfection, cell culture supernatant was collected and cleared using centrifuge for GPC3-hFc concentration determination with ELISA and cells were detached and counted by trypan blue exclusion using a CEDEX™ cell quantification system (Roche, Mannheim, Germany). Per cell GPC3-hFc production can be calculated from overall GPC3-hFc yield and viable cell number.
AffiniPure™ F(ab′)2 Fragment Goat Anti-Human IgG (min X Bov, Ms, Rb Sr Prot, Cat. 109-006-170, Jackson Immunology) was used to coat a 96-well plate at 5 μg/mL in PBS buffer, 50 μL per well, at 4° C. overnight. After the plate was blocked with 2% BSA in PBS buffer, pre-diluted cell culture supernatant was added, and the plate was incubated at room temperature for one hour to allow binding to occur. After the plate was washed twice with PBS containing 0.05% Tween 20, Peroxidase-conjugated AffiniPure™ Goat-anti-uman IgG (Cat. 109-035-098, Jackson Immunology) was added at 1:4000 dilutions, 50 ul/well. Following incubating at room temperature for one hour, the plate was washed 4 times and detected with Peroxidase Substrate System (KPL).

Sequence | Signal relative to negative control (%) [1] [%] | MAD-based z-score [1] | improvement of functional expression of NTSR1 compared with siN.C. (NTSR1) | improvement of luciferase expression (per cell luciferase activity) [2] | improvement of per cell GPC3-hFc secretion (HEK-GPC3-hFc cell line) | change of overall GPC3-hFc production (HEK-GPC3-hFc cell line) | cell growth (viable cell density) [2] | overall production of luciferase higher than negative control siN.C. [2] [%] | functional neurotensin receptor molecules per cell (NTSR1; specific [3H]NT binding, 2 nM)
UAAUACUGUCUGGUAAAACCGU (listed as RNA, chemistry not given here; listed as Homo sapiens) [miR-429, human miRNA mimic] | 212 | 4.2 | improved functional activity levels | relevant for improving luciferase expression | enhanced per cell GPC3-hFc secretion | – | – | – | –
UAAGGUGCAUCUAGUGCAGAUAG (listed as RNA, chemistry not given here; listed as Homo sapiens) [miR-18a-5p, human miRNA mimic] | 149 | 2.0 | improved functional activity levels | relevant for improving luciferase expression | enhanced per cell GPC3-hFc secretion | effectively enhanced overall GPC3-hFc | – | – | –
AUCGCUGCGGUUGCGAGCGCUGU (listed as RNA, chemistry not given here; listed as Homo sapiens) [miR-639, human miRNA mimic] | 165 | 2.4 | not associated with enhanced binding activity | – | – | – | – | – | –
AGUUCUUCAGUGGCAAGCUUUA (listed as RNA, chemistry not given here; listed as Homo sapiens) [miR-22-5p, human miRNA mimic] | 215 | 4.0 | – | relevant for improving luciferase expression | enhanced per cell GPC3-hFc secretion | effectively enhanced overall GPC3-hFc | – | – | –
CUUUUUGCGGUCUGGGCUUGC (listed as RNA, chemistry not given here; listed as Homo sapiens) [miR-129-5p, human miRNA mimic] | 172 | 2.7 | not associated with enhanced binding activity | – | – | – | – | – | –
CACUGGCUCCUUUCUGGGUAGA (listed as RNA, chemistry not given here; listed as Homo sapiens) [miR-892b, human miRNA mimic] | 201 | 3.7 | not associated with enhanced binding activity | 239% | – | – | inhibited cell growth | 188 | –
AAGCUGCCAGUUGAAGAACUGU (listed as RNA, chemistry not given here; listed as Homo sapiens) [miR-22-3p, human miRNA mimic] | 158 | 2.3 | – | – | enhanced per cell GPC3-hFc secretion | effectively enhanced overall GPC3-hFc | inhibited cell growth | 127 | –
UUGGGGAAACGGCCGCUGAGUG [miR-2110] | 160 | 2.3 | – | relevant for improving luciferase expression | enhanced per cell GPC3-hFc secretion | – | – | – | 13.8 million functional neurotensin receptor molecules per cell
ACCUGGCAUACAAUGUAGAUUU (listed as RNA, chemistry not given here; listed as Homo sapiens) [miR-221-5p, human miRNA mimic] | 248 | 5.3 | not associated with enhanced binding activity | – | – | – | – | – | –
